{"source": "patent US9365597B2", "about": "“Mitochondria-targeted inhibitors of cytochrome c peroxidase for protection from apoptosis” (Brock University, priority 2011, dated 2016)", "key": {"[1]": {"experiment": "Compartmentalization of TPP-IOA in mouse embryonic cells and subcellular fractions (HPLC, ESI-MS)", "format": "in vitro ADME", "experimental": "Mitochondrial fractions were isolated by differential centrifugation. Briefly, cells were suspended in mitochondria isolation buffer (pH 7.4; MIB) containing mannitol (210 mM), sucrose (70 mM), HEPES (10 mM), EDTA (1 mM) and protease inhibitor cocktail. Cells were lysed by Dounce homogenization. Unbroken cells, nuclei and debris were removed by 5 min centrifugation at 600×g at 4° C. Mitochondria, obtained by centrifugation at 10,000×g (10 min), were washed once with MIB.\nMouse embryonic cells (2×10^6) were seeded in 100 mm cell culture dishes and let attached overnight. Thereafter, the cells were incubated with TPP-IOA (10 μM) in PBS at 37° C. for 30 min, washed with PBS (2×5 mL), and collected by trypsinization. Mitochondria were isolated as described above. In mitochondria, TPP-IOA was analyzed by HPLC after precipitation of proteins with CH3CN (final concentration, 70%; incubation time, 15 min at 4° C.; centrifugation, 5 min at 10,000×g). TPP-IOA from cytosolic fractions was extracted by following the protocol of Folch et al.^37 and then re-dissolved in a minimal volume of methanol. […] Detection of TPP-IOA was performed with a SPD-M10A photodiode array detector (Shimadzu, Kyoto, Japan) following the specific UV spectrum of the triphenylphosphonium function (λmax=224, 264 and 274 nm; FIG. 4A, Inset). TPP-IOA was eluted as single peak with retention time of 4 min."}, "SH-SY5Y cells": {"test_system": "SH-SY5Y cells", "experiment": "Oxygen-glucose deprivation (OGD) of SH-SY5Y cells, viability by WST-1 assay", "format": "cell-based, human", "details": "for fold change in viability compared to control cells: 24 hours of recovery after 8 hour OGD, mean±SEM", "experimental": "SH-SY5Y cells were harvested from 100 mm diameter culture plates once 70-80% confluence was reached, and were then seeded on 96-well plates at a density of 3.0×10^4 cells per well in normal growth media. The cells were then incubated overnight (approximately 16 hours) under normal growth conditions to allow for attachment to plates. During this time, DMEM (supplemented with 25 mM HEPES, 4 mM L-glutamine, and 584 mg/L […]) with no glucose or serum to be used for OGD was incubated on a culture plate in the 3% oxygen, 5% carbon dioxide, 37° C. incubator to reduce the oxygen levels within the media. In the following morning, this plate of media was placed inside of a custom-built anoxic chamber that was continuously pumped with 95% nitrogen-5% carbon dioxide gas mixture from Praxair Canada (St. Catharines, ON, Canada) to further reduce/eliminate the amount of oxygen present in the media. 0.2% oxygen level within the chamber was reached within approximately 10 minutes, and the plate of media was incubated for 30 minutes under these conditions. After this period, the growth media on the 96-well plates of SH-SY5Y cells was removed, and carefully replaced with the de-oxygenated DMEM containing no glucose or serum. The plates of cells were then incubated in the anoxia chamber at 0.2% oxygen for 8 hours, continuously pumped with the 95% nitrogen-5% carbon dioxide gas mixture. An oxygen sensor was kept inside of the chamber, and the 0.2% oxygen level was monitored and maintained by a Roxy-1 universal regulator/controller (Sable Systems Int., Las Vegas, Nev., USA). Throughout the duration of the media de-oxygenation and OGD, the anoxic chamber was kept inside of a 37° C. […]\nAfter the 8 hour period of OGD, the glucose/serum-free DMEM was carefully removed from the wells, and replaced with normal growth media containing TPP-IOA. The cells were incubated at their normal growth conditions, and viability was assessed after 24 and 48 hours of recovery with the use of the WST-1 cell proliferation assay.\nFor measurements, premixed WST-1 cell proliferation reagent was added to the wells of cells (ratio of 1:10 with growth media) cultured on 96-well flat bottomed plates. […] The plate was then shaken thoroughly for 1 minute on a plate shaker, and then absorbance at 450 nm, with a reference wavelength of 650 nm, was measured using a microplate reader (BioTek, Winooski, Vt., USA).\nFor data analysis, the background control and reference wavelength absorbance readings were subtracted from the 450 nm reading for each sample. The average absorbance reading for the 0 μM TPP-IOA treatment was then set equal to 1, and all sample readings were divided by the mean absorbance of the 0 μM TPP-IOA treatment to obtain a measure of fold change in viability compared to the control."}}, "data": [{"smiles": "CCCCCCC(C/C=C\\CCCCCCCC(=O)OCCC[P+](c1ccccc1)(c1ccccc1)c1ccccc1)n1ccnc1.[Br-]", "note": "(stereo not drawn) [TPP-IOA]", "values": [{"measurement": "concentration of TPP-IOA in mitochondria", "setting": "[1]; assuming mitochondria are ~15-25% of cell volume", "value": "~5000", "unit": "µM"}, {"measurement": "subcellular distribution of TPP-IOA", "setting": "[1]; mouse embryonic cells, 10 μM, 30 min", "value": "most of the TPP-IOA was present in mitochondria"}, {"measurement": "fold change in viability compared to control cells", "setting": "SH-SY5Y cells; 2.5 μM, p=0.017", "value": "1.192±0.058", "unit": "fold"}, {"measurement": "fold change in viability compared to control cells", "setting": "SH-SY5Y cells; 5 μM, p=0.0094", "value": "1.356±0.074", "unit": "fold"}, {"measurement": "fold change in viability compared to control cells", "setting": "SH-SY5Y cells; 10 μM, non-significant p=0.0955", "value": "1.179±0.038", "unit": "fold"}, {"measurement": "viability after 48 hours of incubation", "setting": "SH-SY5Y cells; 48 hours of recovery after 8 hour OGD", "value": "no significant improvements in viability"}]}]}
